In test [1] the test system is strains which belong to the group Proteus. The test is described as follows: Example of a gelled medium with O-toluene-sulfonyl-L-tyrosine and iron citrate. The class given is cell-based. The settings on record: 0.5 g/l with iron citrate at 0.5 g/l in gelled medium; after 18 to 24 hours of incubation. The source says: As an example of a gelled medium, O-toluene-sulfonyl-L-tyrosine at 0.5 g/l and iron citrate at 0.5 g/l can be incorporated into the culture medium, in the following medium:
this medium being able to be inoculated with various Gram-negative or Gram-positive microorganisms.

Test [2] deals with bacteria belonging to the group Proteus. The test is described as follows: Differentiation of the group Proteus from other bacteria in liquid medium (Example 7). It counts as cell-based. The settings on record: after 48 hours. As to the method: Two media were prepared according to the usual techniques. […] The composition of the Media III and IV for one liter of final medium is as follows: [table] The pH of the media was adjusted to approximately 7.2. In Medium III, the detection agent for the enzymatic activity such as deaminase activity which was used is the natural amino acid L-histidine, at 1.5 g/l; in Medium IV, the detection agent for the enzymatic activity such as deaminase activity which is used is of [sic] N-toluene-sulfonyl-L-histidine, at 0.5 g/l. The media were distributed into test tubes, in a sterile manner. These two media were inoculated with the 12 bacterial strains described in Example 6. The tubes were incubated for 48 hours at 37° C., and were examined visually after 48 hours according to the following interpretation: the browning of the tube reflects the presence of an enzymatic activity such as deaminase activity, and thus of a bacterium of the group Proteus, the absence of browning signifies the absence of bacteria of the group Proteus.

This is an account of results in patent US6733986B1, “Method and agent for determining a deaminase enzymatic activity” (Bio Merieux, priority 1997, dated 2004).

For the compound `Cc1ccc(S(=O)(=O)Oc2ccc(C[C@H](N)C(=O)O)cc2)cc1` [Example 2, 4-O-tosyl-L-tyrosine], the “colour of colonies of strains of the group Proteus” value in test [1] is “brown colonies”. On to `N[C@@H](Cc1c[nH]cn1)C(=O)O` [L-histidine], for which the “differentiation of bacteria of the group Proteus from those not belonging thereto” value in test [2] is “high sensitivity and specificity”.
